Data on 1 compound can be found in US20190314311A1, “PHARMACEUTICAL COMPOSITION” (JAPAN SCIENCE AND TECHNOLOGY AGENCY, priority 2016, published 2019).

Each structure is given as a SMILES string.

Holding throughout (assay type): biochemical
Assay [1] concerns Thio-Q62 protein. The experiment in a line: protein aggregation turbidity assay. Particulars: 10 μM thio-Q62, PBS, 37° C.; arginine 100, 200 or 400 mM; proline 400 mM; Thio-Q62 alone = 100%. On the procedure:
In the subsequent experiments, the protein aggregation turbidity assay was performed by the method described in Non-Patent Document 6. Specifically, it was performed as follows.
(§1) A solution in which abnormally expanded proteins were dissolved in physiological saline phosphate (PBS) was used as a measurement sample. The solution was incubated at 37° C., and turbidity at 405 nm was measured every 24 hours using a microplate reader “Spectramax Plus plate reader” (Molecular Devices Inc.).
As an abnormally expanded PolyQ protein, a Thioredoxin-Q62 (Thio-Q62) fusion protein consisting of Thioredoxin and a PolyQ stretch with 62 glutamines was used.
As a control, Thio-Q62 protein alone was incubated in the same manner, and the turbidity was measured every 24 hours.
As controls, a solution containing Thio-Q62 protein alone, and a solution containing Thio-Q62 protein and 400 mM proline were incubated in the same manner, respectively, and turbidity was measured after 5 days. […] The relative turbidity (%) of each solution was measured. The turbidity of the solution containing Thio-Q62 protein alone was set to 100%. In the figure, values represent means±SEM (n=3). “*” represents p<0.05, “***” represents p<0.001, “n.s.” represents not significant.

The subject of assay [2] is Thio-Q62 protein. As to the kind of experiment: seed-induced polyQ aggregation reaction (turbidity). The settings on record: 10 μM Thio-Q62 + seeds, 400 mM arginine or proline, 37° C., 7 days. As to the method:
as §1

Assay [3] concerns abnormally expanded PolyQ protein. As to the kind of experiment: in vitro screening assay of abnormally expanded PolyQ protein aggregation by the turbidity method. Particulars: screening of PolyQ aggregation inhibiting compounds. From the text:
The present inventors established an in vitro screening assay system capable of conveniently evaluating the aggregation of abnormally expanded PolyQ protein by the turbidity method (U.S. Pat. No. 6,632,616).

Take `O=C(O)[C@@H]1CCCN1` [proline, reference compound]: the “relative turbidity after 5 days” value in the assay on Thio-Q62 protein [1] is listed as “did not exert any anti-aggregation effect”. The “seed-induced increase in turbidity” value with Thio-Q62 protein [2] is listed as “the effects as observed with arginine was not obtained”. Also, in assay [3], the “PolyQ aggregation inhibitory activity” value was “no PolyQ aggregation-inhibitory effect”.
